Test results reported in ChEMBL document CHEMBL1177695, “Discovery and development of natural product-derived chemotherapeutic agents based on a medicinal chemistry approach” (J Nat Prod, 2010).
≈ marks a conversion by molar mass, not a printed value. Each block holds one molecule with its values, some of them ahead of it.

How the values were obtained:
[1] = Cytotoxicity against human H9 cells after 4 days by coulter counter; format: cell-based; conditions: human, H9 cells; read-out: TI
[2] = test system: Human immunodeficiency virus 1; experiment: Antiviral activity against HIV1 3B infected in H9 cells assessed as inhibition of viral replication by p24 antigen ELISA; format: functional, organism-based; conditions: Human immunodeficiency virus 1, 3B, H9; read-out: EC50
[3] = Therapeutic index, ratio of IC50 for human H9 cells to EC50 for HIV 3B; format: cell-based; conditions: read-out: TI
[4] = Inhibition of tubulin polymerization
[5] = Cytotoxicity against human KB-7d cells after 72 hrs by MTT assay; format: functional, cell-based; conditions: KB7D
[6] = test system: KB; experiment: Cytotoxicity against human KB cells after 72 hrs by MTT assay; format: functional, cell-based
[7] = test system: KB; experiment: Cytotoxicity against human etoposide-resistant KB cells after 72 hrs by MTT assay
[8] = Cytotoxicity against human KB1 cells after 72 hrs by MTT assay; format: functional, cell-based; conditions: KB1, 72 h
[9] = test system: A549; experiment: Cytotoxicity against human A549 cells after 3 days by sulforhodamine B assay; format: functional, cell-based; conditions: A549, 72 h
[10] = test system: KB; experiment: Cytotoxicity against human KB cells after 3 days by sulforhodamine B assay; format: functional, cell-based; conditions: 72 h
[11] = test system: 1A9; experiment: Cytotoxicity against human 1A9 cells after 3 days by sulforhodamine B assay; format: functional, cell-based; conditions: 1A9, 72 h
[12] = Cytotoxicity against human KBVIN cells after 3 days by sulforhodamine B assay; format: functional, cell-based; conditions: 72 h
[13] = test system: PC-3; experiment: Cytotoxicity against human PC3 cells after 3 days by sulforhodamine B assay; format: functional, cell-based; conditions: PC-3, 72 h
[14] = test system: A-431; experiment: Cytotoxicity against human A431 cells after 3 days by sulforhodamine B assay; format: functional, cell-based; conditions: A-431, 72 h
[15] = test system: HCT-8; experiment: Cytotoxicity against human HCT8 cells after 3 days by sulforhodamine B assay; format: functional, cell-based; conditions: HCT-8, 72 h
[16] = Therapeutic index, ratio of IC50 for human H9 cells to EC50 for HIV1; format: cell-based; conditions: read-out: TI
[17] = test system: Human immunodeficiency virus 1; experiment: Antiviral activity against HIV1 infected in human H9 cells after 4 days by p24 antigen ELISA; format: functional, organism-based; conditions: Human immunodeficiency virus 1, H9, 96 h
[18] = read-out: ED50 (the source's name)

EC50 [2]: 50 nM
Structure (SMILES): COc1cc(=O)oc2c3c(ccc12)OC(C)(C)[C@H](OC(=O)C12CCC(C)(C(=O)O1)C2(C)C)[C@@H]3OC(=O)C12CCC(C)(C(=O)O1)C2(C)C (stereo not given in full)
selectivity ratio at 96 h [1]: > 15

EC50 [2]: 25 nM
Structure (SMILES): C[C@]12CCC[C@]3(C(=O)OC1)[C@@H]2CC[C@@]12C[C@@H](CC[C@H]13)[C@](C)(O)C2 [NEOTRIPTERIFORDIN]
selectivity ratio [3]: 125

EC50 [2]: 6 nM
Structure (SMILES): Cc1cc(=O)oc2c3c(ccc12)OC(C)(C)[C@H](OC(=O)C12CCC(C)(C(=O)O1)C2(C)C)[C@@H]3OC(=O)C12CCC(C)(C(=O)O1)C2(C)C (stereo not given in full)
selectivity ratio at 96 h [1]: > 39

IC50 [4]: 560 nM
Structure (SMILES): COc1cc2c(c(OC)c1OC)-c1ccc(SC)c(=O)cc1[C@@H](OC(=O)Oc1ccncc1)CC2

EC50 [2]: 4000 nM
Structure (SMILES): OC[C@@H](O)C[C@H]1OCC2(O)c3c(cc(O)c4c3O[C@@H](c3cc(O)c(O)c(O)c3)[C@@H](O)C4)OC12O (stereo not given in full)
selectivity ratio [3]: 9.5

EC50 [2]: 11 nM
Structure (SMILES): COc1cc2c(c(OC)c1OC)-c1c(cc3c(c1OC)OCO3)[C@H](OC(=O)c1ccccc1)[C@@](C)(O)[C@@H](C)C2 [GOMISIN G]
selectivity ratio [3]: 600

EC50 [2]: < 220 nM
Structure (SMILES): CC1(C)C=C2[C@H]3CC[C@@H]4[C@@]5(C)CCC(=O)C(C)(C)[C@@H]5CC[C@@]4(C)[C@]3(C)CC[C@@]2(C(=O)O)CC1 [MORONIC ACID]
selectivity ratio [3]: > 186

EC50 [2]: 67 nM
Structure (SMILES): COc1c(C)c(O)c(C(=O)/C=C(\O)c2ccccc2)c(O)c1C=O
selectivity ratio [3]: 489

IC50 [4]: 460 nM
Structure (SMILES): O=c1cc(-c2ccccc2F)[nH]c2ccc(N3CCCC3)cc12

EC50 [2]: 1300 nM
Structure (SMILES): CC(=O)O[C@@H]1[C@H](OC(=O)CC(C)C)c2c(ccc3ccc(=O)oc23)OC1(C)C [SUKSDORFIN]
selectivity ratio [3]: 40

The next lines start with the molecule.

Structure (SMILES): COc1cc2c(c(OC)c1OC)-c1ccc(SC)c(=O)cc1C(=O)CC2 [THIOCOLCHICONE]
IC50 [4]: 760 nM

Structure (SMILES): Cc1cn([C@H]2C[C@H](N=[N+]=[N-])[C@@H](CO)O2)c(=O)[nH]c1=O [ZIDOVUDINE]
EC50 [2]: 44 nM

Structure (SMILES): COc1cc([C@@H]2c3cc4c(cc3[C@@H](Nc3ccc(C(=O)N[C@@H](C)C(=O)OCc5ccccc5)cc3)[C@H]3COC(=O)[C@H]23)OCO4)cc(OC)c1O
EC50 [5, 18]: 0.25 µg/mL (≈ 0.367 µM)
EC50 [6, 18]: 0.5 µg/mL (≈ 0.735 µM)

Structure (SMILES): COc1cc([C@@H]2c3cc4c(cc3[C@@H](Nc3ccc(C#N)cc3)[C@H]3COC(=O)[C@H]23)OCO4)cc(OC)c1O
IC50 [7]: 4000 nM
IC50 [8]: 2700 nM
IC50 [5]: 5000 nM
IC50 [6]: 610 nM

Structure (SMILES): COc1cc2c(cc1O)[C@@H](Cc1ccc(O)cc1)NCC2
selectivity ratio [3]: 125
EC50 [2]: 2800 nM

Structure (SMILES): C[C@@H]1C[C@H](O)[C@H](O)[C@@H](O[C@H]2CC[C@]3(C=O)[C@H]4CC[C@]5(C)[C@@H](c6ccc(=O)oc6)CC[C@]5(O)[C@@H]4CC[C@]3(O)C2)O1 [KALANCHOSIDE C]
IC50 [9]: 0.006 µg/mL (≈ 0.011 µM)
IC50 [10]: 0.016 µg/mL (≈ 0.0293 µM)
IC50 [11]: 0.012 µg/mL (≈ 0.022 µM)
IC50 [12]: 0.026 µg/mL (≈ 0.0476 µM)
IC50 [13]: 0.025 µg/mL (≈ 0.0457 µM)
IC50 [14]: 0.055 µg/mL (≈ 0.101 µM)
IC50 [15]: 0.045 µg/mL (≈ 0.0823 µM)

Structure (SMILES): CC(C)=CCC/C(C)=C/CC[C@@]1(C)C=Cc2c(cc(C)c(C(=O)O)c2O)O1 [DAURICHROMENIC ACID]
selectivity ratio [3]: 3710
EC50 [2]: 15 nM

Structure (SMILES): C=C(C)[C@@H]1CC[C@]2(C(=O)O)CC[C@]3(C)[C@H](CC[C@@H]4[C@@]5(C)CC[C@H](OC(=O)C(C)(C)CC(=O)O)C(C)(C)[C@@H]5CC[C@]43C)[C@@H]12
selectivity ratio [16]: 6.7
IC50 [17]: 15900 nM

Structure (SMILES): COc1cc([C@@H]2c3cc4c(cc3[C@@H](NC3=CCC5(C=C3)OCCO5)[C@H]3COC(=O)[C@H]23)OCO4)cc(OC)c1O
IC50 [7]: 1600 nM
IC50 [8]: 500 nM
IC50 [5]: 1000 nM
IC50 [6]: 680 nM

Structure (SMILES): C[C@@H]1O[C@@H](O[C@H]2CC[C@]3(C=O)[C@H]4CC[C@]5(C)[C@@H](c6ccc(=O)oc6)CC[C@]5(O)[C@@H]4CC[C@]3(O)C2)[C@@H](O)[C@H](O)[C@@H]1O [KALANCHOSIDE B]
IC50 [9]: 0.001 µg/mL (≈ 0.00178 µM)
IC50 [10]: 0.005 µg/mL (≈ 0.00889 µM)
IC50 [11]: 0.007 µg/mL (≈ 0.0124 µM)
IC50 [12]: 0.013 µg/mL (≈ 0.0231 µM)
IC50 [13]: 0.01 µg/mL (≈ 0.0178 µM)
IC50 [14]: 0.022 µg/mL (≈ 0.0391 µM)
IC50 [15]: 0.015 µg/mL (≈ 0.0267 µM)
